Reference: PubChem BioAssay (NCI)
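Where inhibition never reached the appropriate level, the endpoint shown equals the highest concentration tested. Otherwise, values were interpolated linearly from a five-concentration, 48-hour dose response in 96-well plates. Here, GI50 denotes the concentration required for 50% inhibition of growth. TGI: concentration producing complete growth inhibition.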

Key:
Assay in all cases: DTP human tumour cell line panel, 48 h
MDA-MB-435 = test system: MDA-MB-435
UACC-62 melanoma = test system: UACC-62 melanoma
SK-MEL-5 melanoma = test system: SK-MEL-5 melanoma
OVCAR-8 ovarian = test system: OVCAR-8 ovarian
MDA-MB-231 breast = test system: MDA-MB-231 breast
SNB-75 CNS = test system: SNB-75 CNS
PC-3 prostate = test system: PC-3 prostate
K-562 leukemia = test system: K-562 leukemia
TK-10 renal = test system: TK-10 renal
RPMI-8226 leukemia = test system: RPMI-8226 leukemia
MCF7 breast = test system: MCF7 breast
MDA-MB-468 breast = test system: MDA-MB-468 breast
BT-549 breast = test system: BT-549 breast
SK-MEL-2 melanoma = test system: SK-MEL-2 melanoma
HL-60(TB) leukemia = test system: HL-60(TB) leukemia
SR leukemia = test system: SR leukemia
EKVX NSCLC = test system: EKVX NSCLC
UO-31 renal = test system: UO-31 renal
HOP-62 NSCLC = test system: HOP-62 NSCLC
MALME-3M melanoma = test system: MALME-3M melanoma
IGROV1 ovarian = test system: IGROV1 ovarian
OVCAR-4 ovarian = test system: OVCAR-4 ovarian
SK-MEL-28 melanoma = test system: SK-MEL-28 melanoma
CCRF-CEM leukemia = test system: CCRF-CEM leukemia
NCI/ADR-RES ovarian = test system: NCI/ADR-RES ovarian
OVCAR-5 ovarian = test system: OVCAR-5 ovarian
SF-539 CNS = test system: SF-539 CNS
SF-268 CNS = test system: SF-268 CNS
786-0 renal = test system: 786-0 renal
SF-295 CNS = test system: SF-295 CNS
HT29 colon = test system: HT29 colon
HCC-2998 colon = test system: HCC-2998 colon
NCI-H226 lung = test system: NCI-H226 lung
NCI-H460 lung = test system: NCI-H460 lung
HOP-92 NSCLC = test system: HOP-92 NSCLC
ACHN renal = test system: ACHN renal
UACC-257 melanoma = test system: UACC-257 melanoma
SW-620 colon = test system: SW-620 colon
U251 CNS = test system: U251 CNS
OVCAR-3 ovarian = test system: OVCAR-3 ovarian
NCI-H23 lung = test system: NCI-H23 lung
SNB-19 CNS = test system: SNB-19 CNS
DU-145 prostate = test system: DU-145 prostate
NCI-H522 lung = test system: NCI-H522 lung
RXF 393 renal = test system: RXF 393 renal
MOLT-4 leukemia = test system: MOLT-4 leukemia
SK-OV-3 ovarian = test system: SK-OV-3 ovarian
A498 renal = test system: A498 renal
KM12 colon = test system: KM12 colon
M14 melanoma = test system: M14 melanoma
HCT-15 colon = test system: HCT-15 colon
T-47D breast = test system: T-47D breast
COLO 205 colon = test system: COLO 205 colon
SN12C renal = test system: SN12C renal
HS 578T breast = test system: HS 578T breast
CAKI-1 renal = test system: CAKI-1 renal
LOX IMVI melanoma = test system: LOX IMVI melanoma
HCT-116 colon = test system: HCT-116 colon
A549 NSCLC = test system: A549 NSCLC

CCOC(=O)c1ccc(NC(=O)CSC(CC(=O)c2sc(Nc3ccccn3)nc2C)c2ccccc2F)cc1 (stereo not drawn)
GI50 (MDA-MB-435): 26.3 µM | TGI (MDA-MB-435): > 100 µM | GI50 (UACC-62 melanoma): 16.1 µM | TGI (UACC-62 melanoma): > 100 µM | GI50 (SK-MEL-5 melanoma): 18.6 µM | TGI (SK-MEL-5 melanoma): 82 µM | GI50 (OVCAR-8 ovarian): 53.6 µM | TGI (OVCAR-8 ovarian): > 100 µM | GI50 (MDA-MB-231 breast): 19.3 µM | TGI (MDA-MB-231 breast): > 100 µM | GI50 (SNB-75 CNS): 3.59 µM | TGI (SNB-75 CNS): 48.8 µM | GI50 (PC-3 prostate): 23.8 µM | TGI (PC-3 prostate): > 100 µM | GI50 (K-562 leukemia): 30.4 µM | TGI (K-562 leukemia): > 100 µM | GI50 (TK-10 renal): 82.3 µM | TGI (TK-10 renal): > 100 µM | GI50 (RPMI-8226 leukemia): 8.29 µM | TGI (RPMI-8226 leukemia): > 100 µM | GI50 (MCF7 breast): 15.4 µM | TGI (MCF7 breast): > 100 µM | GI50 (MDA-MB-468 breast): 4.24 µM | TGI (MDA-MB-468 breast): 44.3 µM | GI50 (BT-549 breast): 14.7 µM | TGI (BT-549 breast): 81.5 µM | GI50 (SK-MEL-2 melanoma): 44.9 µM | TGI (SK-MEL-2 melanoma): > 100 µM | GI50 (HL-60(TB) leukemia): 21.4 µM | TGI (HL-60(TB) leukemia): > 100 µM | GI50 (SR leukemia): 24.1 µM | TGI (SR leukemia): > 100 µM | GI50 (EKVX NSCLC): 19 µM | TGI (EKVX NSCLC): > 100 µM | GI50 (UO-31 renal): 3.19 µM | TGI (UO-31 renal): > 100 µM | GI50 (HOP-62 NSCLC): 37.5 µM | TGI (HOP-62 NSCLC): > 100 µM | GI50 (MALME-3M melanoma): 25.4 µM | TGI (MALME-3M melanoma): > 100 µM | GI50 (IGROV1 ovarian): 12.1 µM | TGI (IGROV1 ovarian): 83.3 µM | GI50 (OVCAR-4 ovarian): 66.1 µM | TGI (OVCAR-4 ovarian): > 100 µM | GI50 (SK-MEL-28 melanoma): 38.7 µM | TGI (SK-MEL-28 melanoma): > 100 µM | GI50 (CCRF-CEM leukemia): 18.6 µM | TGI (CCRF-CEM leukemia): > 100 µM | GI50 (NCI/ADR-RES ovarian): 24.1 µM | TGI (NCI/ADR-RES ovarian): > 100 µM | GI50 (OVCAR-5 ovarian): 74.4 µM | TGI (OVCAR-5 ovarian): > 100 µM | GI50 (SF-539 CNS): 32.5 µM | TGI (SF-539 CNS): > 100 µM | GI50 (SF-268 CNS): 43.1 µM | TGI (SF-268 CNS): > 100 µM | GI50 (786-0 renal): 24.8 µM | TGI (786-0 renal): > 100 µM | GI50 (SF-295 CNS): 32.2 µM | TGI (SF-295 CNS): > 100 µM | GI50 (HT29 colon): 58.3 µM | TGI (HT29 colon): > 100 µM | GI50 (HCC-2998 colon): 23.1 µM | TGI (HCC-2998 colon): > 100 µM | GI50 (NCI-H226 lung): 2520 nM | TGI (NCI-H226 lung): 85.9 µM | GI50 (NCI-H460 lung): 31.2 µM | TGI (NCI-H460 lung): > 100 µM | GI50 (HOP-92 NSCLC): 12.5 µM | TGI (HOP-92 NSCLC): > 100 µM | GI50 (ACHN renal): 45.6 µM | TGI (ACHN renal): > 100 µM | GI50 (UACC-257 melanoma): 38.4 µM | TGI (UACC-257 melanoma): > 100 µM | GI50 (SW-620 colon): 75.3 µM | TGI (SW-620 colon): > 100 µM | GI50 (U251 CNS): 47.8 µM | TGI (U251 CNS): > 100 µM | GI50 (OVCAR-3 ovarian): 31.7 µM | TGI (OVCAR-3 ovarian): > 100 µM | GI50 (NCI-H23 lung): 22.7 µM | TGI (NCI-H23 lung): > 100 µM | GI50 (SNB-19 CNS): 36.9 µM | TGI (SNB-19 CNS): > 100 µM | GI50 (DU-145 prostate): 67.2 µM | TGI (DU-145 prostate): > 100 µM | GI50 (NCI-H522 lung): 21.6 µM | TGI (NCI-H522 lung): > 100 µM | GI50 (RXF 393 renal): 2590 nM | TGI (RXF 393 renal): 23.5 µM | GI50 (MOLT-4 leukemia): 32.2 µM | TGI (MOLT-4 leukemia): > 100 µM | GI50 (SK-OV-3 ovarian): 26 µM | TGI (SK-OV-3 ovarian): > 100 µM | GI50 (A498 renal): 69.2 µM | TGI (A498 renal): > 100 µM | GI50 (KM12 colon): 55.6 µM | TGI (KM12 colon): > 100 µM | GI50 (M14 melanoma): 19.4 µM | TGI (M14 melanoma): > 100 µM | GI50 (HCT-15 colon): 25.8 µM | TGI (HCT-15 colon): > 100 µM | GI50 (T-47D breast): 18 µM | TGI (T-47D breast): > 100 µM | GI50 (COLO 205 colon): > 100 µM | TGI (COLO 205 colon): > 100 µM | GI50 (SN12C renal): 28 µM | TGI (SN12C renal): > 100 µM | GI50 (HS 578T breast): 14.9 µM | TGI (HS 578T breast): 94.8 µM | GI50 (CAKI-1 renal): 11.5 µM | TGI (CAKI-1 renal): > 100 µM | GI50 (LOX IMVI melanoma): 312 nM | TGI (LOX IMVI melanoma): > 100 µM | GI50 (HCT-116 colon): 23 µM | TGI (HCT-116 colon): > 100 µM | GI50 (A549 NSCLC): 75.7 µM | TGI (A549 NSCLC): > 100 µM
